Laboratory results from ChEMBL document CHEMBL3611990, “Identification of Purines and 7-Deazapurines as Potent and Selective Type I Inhibitors of Troponin I-Interacting Kinase (TNNI3K)” (J Med Chem, 2015).
≈ marks a conversion by molar mass, not a printed value.

Legend:
[1] = target: T1, Serine/threonine-protein kinase TNNI3K (Homo sapiens, UniProt Q59H18); assay: Displacement of 5-({[2-({[3-({4-[(5-hydroxy-2-methylphenyl)amino]-2-pyrimidinyl}amino)phenyl]carbonyl}amino)-ethyl]amino}carbonyl)-2-(6-hydroxy-3-oxo-3H-xanthen-9-yl)benzoic acid from His6-MBP-TEV-full length human TNNI3K expressed in Baculovirus expression system after 60 mins by fluorescence polarization assay
T1 sequence (Q59H18 whole entry): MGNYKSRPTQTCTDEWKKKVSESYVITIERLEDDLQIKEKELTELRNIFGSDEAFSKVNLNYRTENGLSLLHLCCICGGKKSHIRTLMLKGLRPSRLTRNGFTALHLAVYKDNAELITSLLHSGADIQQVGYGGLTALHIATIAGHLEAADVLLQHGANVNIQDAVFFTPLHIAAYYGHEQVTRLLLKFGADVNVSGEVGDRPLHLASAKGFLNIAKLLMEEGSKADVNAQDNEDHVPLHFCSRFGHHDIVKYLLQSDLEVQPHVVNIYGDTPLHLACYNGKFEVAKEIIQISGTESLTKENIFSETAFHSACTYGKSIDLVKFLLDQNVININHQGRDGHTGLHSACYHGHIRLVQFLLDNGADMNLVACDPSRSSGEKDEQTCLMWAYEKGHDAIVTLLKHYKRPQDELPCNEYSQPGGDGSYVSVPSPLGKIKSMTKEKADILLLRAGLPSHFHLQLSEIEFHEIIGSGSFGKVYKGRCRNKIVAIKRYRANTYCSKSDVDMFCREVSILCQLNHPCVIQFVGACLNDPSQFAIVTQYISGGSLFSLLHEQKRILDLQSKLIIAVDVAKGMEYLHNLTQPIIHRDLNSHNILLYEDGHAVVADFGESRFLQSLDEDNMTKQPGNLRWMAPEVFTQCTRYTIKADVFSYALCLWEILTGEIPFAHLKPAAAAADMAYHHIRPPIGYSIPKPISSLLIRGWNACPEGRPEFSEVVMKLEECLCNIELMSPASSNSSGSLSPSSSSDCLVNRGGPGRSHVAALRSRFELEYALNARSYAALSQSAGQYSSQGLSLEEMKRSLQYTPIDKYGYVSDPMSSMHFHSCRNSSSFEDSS

[2] = target: Serine/threonine-protein kinase B-raf (Homo sapiens, UniProt P15056, V600E); assay: Inhibition of His6-tagged full length BRAF V600E mutant (2 to 766 residues) (unknown origin) expressed in Baculovirus expression system by BRAMA method
[3] = target: T1, Serine/threonine-protein kinase TNNI3K; assay: Binding affinity to TNNI3K (unknown origin)
Rattus norvegicus = assay: Dose normalized AUC in po dosed Sprague-Dawley rat by LC/MS/MS analysis; assay type: ADME, organism-based; conditions: in vivo
[4] = Plasma clearance in Sprague-Dawley rat at 1 mg/kg, iv by LC/MS/MS analysis; assay type: ADME, organism-based
[5] = Oral bioavailability in Sprague-Dawley rat by LC/MS/MS analysis; assay type: ADME, organism-based; conditions: in vivo
[6] = Aqueous solubility of the compound; assay type: physicochemical
[7] = Volume of distribution at steady state in Sprague-Dawley rat by LC/MS/MS analysis; assay type: ADME, organism-based; conditions: in vivo, read-out: Vdss
[8] = target: T1, Serine/threonine-protein kinase TNNI3K; assay: Inhibition of human myc-tagged TNNI3K autophosphorylation overexpressed in HEKMSRII cells preincubated for 30 mins followed by pervanadate solution addition measured after 20 mins by DELFIA; assay type: cell-based

Serine/threonine-protein kinase B-raf, sequence (P15056 2-766 V600E limits assumed): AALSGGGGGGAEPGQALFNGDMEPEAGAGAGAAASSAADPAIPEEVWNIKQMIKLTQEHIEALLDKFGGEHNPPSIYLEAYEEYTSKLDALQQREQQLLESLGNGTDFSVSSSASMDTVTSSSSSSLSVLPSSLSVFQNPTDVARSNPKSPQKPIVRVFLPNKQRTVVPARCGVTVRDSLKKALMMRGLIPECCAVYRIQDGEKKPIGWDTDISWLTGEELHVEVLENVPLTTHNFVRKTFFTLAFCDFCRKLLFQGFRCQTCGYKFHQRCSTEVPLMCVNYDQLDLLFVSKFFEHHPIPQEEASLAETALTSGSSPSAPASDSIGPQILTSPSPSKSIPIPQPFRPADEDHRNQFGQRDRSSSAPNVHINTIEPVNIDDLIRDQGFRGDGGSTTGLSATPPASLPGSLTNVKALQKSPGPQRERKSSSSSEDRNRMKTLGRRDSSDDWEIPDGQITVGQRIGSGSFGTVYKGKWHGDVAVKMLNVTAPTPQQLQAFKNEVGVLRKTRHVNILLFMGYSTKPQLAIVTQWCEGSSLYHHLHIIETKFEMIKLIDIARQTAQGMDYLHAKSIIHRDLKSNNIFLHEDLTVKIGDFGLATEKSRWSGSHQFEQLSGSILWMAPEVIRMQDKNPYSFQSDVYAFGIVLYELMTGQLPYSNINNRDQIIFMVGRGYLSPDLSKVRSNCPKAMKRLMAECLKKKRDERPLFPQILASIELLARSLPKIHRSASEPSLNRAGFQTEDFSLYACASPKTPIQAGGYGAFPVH

Compound | IC50 [1] [µM] | IC50 [2] [µM] | AUC/dose (Rattus norvegicus) [kg·h/L] | also measured
CNS(=O)(=O)c1cccc(Nc2ncnc3[nH]c(C(=O)O)cc23)c1 | 0.16 | 0.04 |  | 
CNS(=O)(=O)c1cccc(Nc2ncnc3[nH]cnc23)c1 | 0.5 | 0.032 | 0 | Kd [3]: 0.111 µM
CNS(=O)(=O)c1cccc(Nc2nc(F)nc3[nH]cnc23)c1 | 3.2 |  |  | 
CNS(=O)(=O)c1cccc(Nc2ncnc3c2ncn3C)c1 | > 25 |  |  | 
CNS(=O)(=O)c1cccc(Nc2nc(N)nc3[nH]cnc23)c1 | 8 |  |  | 
CNS(=O)(=O)c1cccc(Nc2nc(Cl)nc3[nH]cnc23)c1 | 16 |  |  | 
CNS(=O)(=O)c1cccc(Nc2ncnc3[nH]ncc23)c1 | 0.05 |  |  | clearance [4]: 72 mL/min/kg; bioavailability [5]: 5%
CNS(=O)(=O)c1cccc(Nc2ncnc3[nH]ccc23)c1 | 0.08 | 0.05 | 0.08 | clearance [4]: 68 mL/min/kg; bioavailability [5]: 34%; solubility [6]: 50 µM (≈ 15.2 µg/mL); Vd [7]: 1.4 L/kg
CNS(=O)(=O)c1cccc(Nc2ncnc3c2ccn3C)c1 | > 25 |  |  | 
CNS(=O)(=O)c1cccc(Nc2ccnc3[nH]ccc23)c1 | 8 |  |  | 
CNS(=O)(=O)c1cccc(Nc2ncnc3c2CC(=O)N3)c1 | 0.4 |  |  | 
CCNS(=O)(=O)c1cccc(Nc2ncnc3[nH]cnc23)c1 | 2 |  |  | 
NS(=O)(=O)c1cccc(Nc2ncnc3[nH]cnc23)c1 | 40 |  |  | 
O=S(=O)(NO)c1cccc(Nc2ncnc3[nH]cnc23)c1 | 20 |  |  | 
CN(C)S(=O)(=O)c1cccc(Nc2ncnc3[nH]cnc23)c1 | 8 |  |  | 
CCS(=O)(=O)c1cccc(Nc2ncnc3[nH]cnc23)c1 | 6.3 |  |  | 
CNS(=O)(=O)c1cc(Nc2ncnc3[nH]cnc23)ccc1C | 13 |  |  | 
CNS(=O)(=O)c1ccc(C)c(Nc2ncnc3[nH]cnc23)c1 | 0.5 |  |  | 
CNS(=O)(=O)c1cccc(N(C)c2ncnc3[nH]ccc23)c1 | 5 |  |  | 

Compound | IC50 [1] [µM] | IC50 [2] [µM] | AUC/dose (Rattus norvegicus) [kg·h/L] | also measured
CNS(=O)(=O)c1cccc(Oc2ncnc3[nH]ccc23)c1 | 16 |  |  | 
CNS(=O)(=O)c1cncc(Nc2ncnc3[nH]ccc23)c1 | 0.25 |  |  | 
CNS(=O)(=O)c1cccc(Nc2ncnc3[nH]cc(C)c23)c1 | 0.04 | 0.063 | 0.18 | 
CNS(=O)(=O)c1cccc(Nc2ncnc3[nH]cc(C(C)C)c23)c1 | 0.126 | 0.079 | 0.06 | 
CNS(=O)(=O)c1cccc(Nc2ncnc3[nH]cc(CC(C)C)c23)c1 | 0.126 | 0.04 |  | 
CNS(=O)(=O)c1cccc(Nc2ncnc3[nH]cc(F)c23)c1 | 0.126 | 0.079 | 0.28 | 
CNS(=O)(=O)c1cccc(Nc2ncnc3[nH]cc(Cl)c23)c1 | 0.032 | 0.013 | 0.39 | clearance [4]: 20 mL/min/kg; Vd [7]: 0.45 L/kg
CNS(=O)(=O)c1cccc(Nc2ncnc3[nH]cc(Br)c23)c1 | 0.032 | 0.005 | 0.55 | clearance [4]: 23 mL/min/kg; Vd [7]: 0.63 L/kg
CNS(=O)(=O)c1cccc(Nc2ncnc3[nH]cc(-c4ccccc4)c23)c1 | 0.04 | 0.004 | 0.05 | clearance [4]: 93 mL/min/kg
CNS(=O)(=O)c1cccc(Nc2ncnc3[nH]cc(-c4ccccc4Cl)c23)c1 | 0.04 | 0.01 |  | 
CNS(=O)(=O)c1cccc(Nc2ncnc3[nH]cc(-c4cccc(Cl)c4)c23)c1 | 0.063 | 0.001 |  | 
CNS(=O)(=O)c1cccc(Nc2ncnc3[nH]cc(-c4ccc(Cl)cc4)c23)c1 | 0.1 | 0.004 | 0.2 | clearance [4]: 65 mL/min/kg
CNS(=O)(=O)c1cccc(Nc2ncnc3[nH]cc(-c4ccc(OC)cc4)c23)c1 | 0.05 | 0.004 | 0.06 | 
CNS(=O)(=O)c1cccc(Nc2ncnc3[nH]cc(-c4ccncc4)c23)c1 | 0.1 | 0.032 | 0 | 
CNS(=O)(=O)c1cccc(Nc2ncnc3[nH]cc(-c4ccc(CN)cc4)c23)c1 | 0.032 | 0.006 | 0 | 
CNS(=O)(=O)c1cccc(Nc2ncnc3[nH]cc(-c4ccc(C(=O)O)cc4)c23)c1 | 0.1 | 0.016 | 0 | 
CNS(=O)(=O)c1cccc(Nc2ncnc3[nH]c(Br)cc23)c1 | 0.05 | 0.016 | 0.26 | 
CNS(=O)(=O)c1cccc(Nc2ncnc3[nH]c(-c4ccccc4)cc23)c1 | 0.025 | 0.001 | 0.01 | 
CNS(=O)(=O)c1cccc(Nc2ncnc3[nH]c(-c4ccccc4C)cc23)c1 | 0.013 | 0.006 |  | 

Compound | IC50 [1] [µM] | IC50 [2] [µM] | AUC/dose (Rattus norvegicus) [kg·h/L] | also measured
CNS(=O)(=O)c1cccc(Nc2ncnc3[nH]c(-c4cccc(C)c4)cc23)c1 | 0.013 | 0.001 | 0.01 | 
CNS(=O)(=O)c1cccc(Nc2ncnc3[nH]c(-c4ccc(C)cc4)cc23)c1 | 0.013 | 0.001 |  | 
CNS(=O)(=O)c1cccc(Nc2ncnc3[nH]c(-c4cccc(C(F)(F)F)c4)cc23)c1 | 0.063 | 0.006 | 0.14 | 
CNS(=O)(=O)c1cccc(Nc2ncnc3[nH]c(-c4ccc(O)cc4)cc23)c1 | 0.013 | 0.001 |  | 
CNS(=O)(=O)c1cccc(Nc2ncnc3[nH]c(-c4ccncc4)cc23)c1 | 0.02 | 0.001 | 0 | 
CNS(=O)(=O)c1cccc(Nc2ncnc3[nH]c4ccccc4c23)c1 | 0.1 | 0.04 | 0.03 | 
CNS(=O)(=O)c1ccc(C)c(Nc2ncnc3[nH]ccc23)c1 | 0.63 |  |  | 
CNS(=O)(=O)c1ccc(Cl)c(Nc2ncnc3[nH]ccc23)c1 | 0.02 | 0.032 |  | 
CNc1ccc(S(=O)(=O)NC)cc1Nc1ncnc2[nH]ccc12 | 6.3 | 1 |  | 
CNS(=O)(=O)c1ccc(N(C)C)c(Nc2ncnc3[nH]ccc23)c1 | 0.05 | 0.006 | 0.59 | clearance [4]: 30 mL/min/kg; bioavailability [5]: 100%; solubility [6]: 330 µM (≈ 114 µg/mL); IC50 [8]: 0.05 µM
CNS(=O)(=O)c1ccc(N2CCOCC2)c(Nc2ncnc3[nH]ccc23)c1 | 0.04 | 0.008 | 0.15 | clearance [4]: 39 mL/min/kg; IC50 [8]: 0.1 µM
CNS(=O)(=O)c1ccc(N(C)C)c(Nc2ncnc3[nH]cc(C)c23)c1 | < 0.01 | 0.0005 |  | IC50 [8]: 0.0016 µM
CNS(=O)(=O)c1ccc(N(C)C)c(Nc2ncnc3[nH]cc(Br)c23)c1 | < 0.01 | 0.0002 | 0.04 | IC50 [8]: 0.0007 µM
CNS(=O)(=O)c1ccc(N2CCOCC2)c(Nc2ncnc3[nH]cc(C)c23)c1 | 0.013 | 0.0013 |  | IC50 [8]: 0.0079 µM
CNS(=O)(=O)c1ccc(N2CCOCC2)c(Nc2ncnc3[nH]cc(Br)c23)c1 | < 0.01 | 0.0005 | 0.32 | IC50 [8]: 0.0063 µM
CNS(=O)(=O)c1ccc(N(C)C)c(Nc2ncnc3[nH]c(Br)cc23)c1 | 0.04 | 0.0063 | 0.14 | IC50 [8]: 0.04 µM
CNS(=O)(=O)c1ccc(N(C)C)c(Nc2ncnc3[nH]c(-c4cccc(C(F)(F)F)c4)cc23)c1 | 0.013 | 0.0006 |  | IC50 [8]: 0.016 µM
CNS(=O)(=O)c1ccc(N2CCOCC2)c(Nc2ncnc3[nH]c(Br)cc23)c1 | 0.126 | 0.008 | 0.09 | IC50 [8]: 0.398 µM
CNS(=O)(=O)c1ccc(N2CCOCC2)c(Nc2ncnc3[nH]c(-c4cccc(C(F)(F)F)c4)cc23)c1 | 0.016 | 0.0013 |  | IC50 [8]: 0.01 µM
